Key:
Design in all cases: scale not given: the % may be the effect or the level left
[1] = biological target: Mitogen-activated protein kinase 10 (Homo sapiens) (UniProt P53779); assay: Inhibition of human JNK3 assessed as enzyme activity at 1 uM using ATF2 as substrate preincubated for 20 mins followed by [gamma-33P]-ATP addition and measured after 120 mins by radiometric Hot-SpotSM Kinase assay relative to control
[2] = biological target: T1, Dual specificity mitogen-activated protein kinase kinase 4 (Homo sapiens) (UniProt P45985); assay: Inhibition of human MKK4 assessed as enzyme activity at 1 uM using JNK1 (K55M) as substrate preincubated for 20 mins followed by [gamma-33P]-ATP addition and measured after 120 mins by radiometric Hot-SpotSM Kinase assay relative to control
T1 sequence (whole entry): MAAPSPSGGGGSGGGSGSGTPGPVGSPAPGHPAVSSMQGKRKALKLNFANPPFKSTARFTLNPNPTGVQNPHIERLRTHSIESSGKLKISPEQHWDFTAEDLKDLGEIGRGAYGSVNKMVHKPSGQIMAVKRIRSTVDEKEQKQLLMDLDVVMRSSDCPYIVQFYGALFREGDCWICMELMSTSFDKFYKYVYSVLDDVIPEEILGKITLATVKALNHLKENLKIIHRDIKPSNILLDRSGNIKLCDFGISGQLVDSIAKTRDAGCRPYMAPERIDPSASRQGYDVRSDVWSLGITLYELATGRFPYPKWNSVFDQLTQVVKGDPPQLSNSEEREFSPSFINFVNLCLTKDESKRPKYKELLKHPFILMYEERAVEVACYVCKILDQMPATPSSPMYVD

[3] = biological target: Serine/threonine-protein kinase Chk2 (Homo sapiens) (UniProt O96017); assay: Inhibition of human CHK2 assessed as enzyme activity at 1 uM using KKKVSRSGLYRSPSMPENLNRPR as substrate preincubated for 20 mins followed by [gamma-33P]-ATP addition and measured after 120 mins by radiometric Hot-SpotSM Kinase assay relative to control
[4] = biological target: Mitogen-activated protein kinase 3 (Homo sapiens) (UniProt P27361); assay: Inhibition of human ERK1 assessed as enzyme activity at 1 uM using myelin basic protein as substrate preincubated for 20 mins followed by [gamma-33P]-ATP addition and measured after 120 mins by radiometric Hot-SpotSM Kinase assay relative to control
[5] = biological target: T2, Dual specificity mitogen-activated protein kinase kinase 7 (Homo sapiens) (UniProt O14733); assay: Inhibition of human MKK7 assessed as enzyme activity at 1 uM using JNK (K55M) as substrate preincubated for 20 mins followed by [gamma-33P]-ATP addition and measured after 120 mins by radiometric Hot-SpotSM Kinase assay relative to control
T2 sequence (whole entry): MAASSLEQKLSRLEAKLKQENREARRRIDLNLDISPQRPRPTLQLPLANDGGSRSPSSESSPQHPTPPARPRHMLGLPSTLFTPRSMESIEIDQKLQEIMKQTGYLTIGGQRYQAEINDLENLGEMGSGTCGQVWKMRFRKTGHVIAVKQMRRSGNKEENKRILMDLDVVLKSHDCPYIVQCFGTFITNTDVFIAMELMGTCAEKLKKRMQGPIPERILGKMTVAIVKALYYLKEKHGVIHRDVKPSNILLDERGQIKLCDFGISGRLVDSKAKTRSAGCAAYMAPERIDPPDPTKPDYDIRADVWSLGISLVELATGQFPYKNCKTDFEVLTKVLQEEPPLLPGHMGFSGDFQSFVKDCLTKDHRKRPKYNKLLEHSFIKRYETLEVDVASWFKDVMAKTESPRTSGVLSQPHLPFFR

[6] = biological target: Ephrin type-A receptor 2 (Homo sapiens) (UniProt P29317); assay: Inhibition of human EPHA2 assessed as enzyme activity at 1 uM using poly[Glu:Tyr] (4:1) as substrate preincubated for 20 mins followed by [gamma-33P]-ATP addition and measured after 120 mins by radiometric Hot-SpotSM Kinase assay relative to control
[7] = biological target: T3, Mitogen-activated protein kinase kinase kinase kinase 2 (Homo sapiens) (UniProt Q12851); assay: Inhibition of human GCK assessed as enzyme activity at 1 uM using myelin basic protein as substrate preincubated for 20 mins followed by [gamma-33P]-ATP addition and measured after 120 mins by radiometric Hot-SpotSM Kinase assay relative to control
T3 sequence (whole entry): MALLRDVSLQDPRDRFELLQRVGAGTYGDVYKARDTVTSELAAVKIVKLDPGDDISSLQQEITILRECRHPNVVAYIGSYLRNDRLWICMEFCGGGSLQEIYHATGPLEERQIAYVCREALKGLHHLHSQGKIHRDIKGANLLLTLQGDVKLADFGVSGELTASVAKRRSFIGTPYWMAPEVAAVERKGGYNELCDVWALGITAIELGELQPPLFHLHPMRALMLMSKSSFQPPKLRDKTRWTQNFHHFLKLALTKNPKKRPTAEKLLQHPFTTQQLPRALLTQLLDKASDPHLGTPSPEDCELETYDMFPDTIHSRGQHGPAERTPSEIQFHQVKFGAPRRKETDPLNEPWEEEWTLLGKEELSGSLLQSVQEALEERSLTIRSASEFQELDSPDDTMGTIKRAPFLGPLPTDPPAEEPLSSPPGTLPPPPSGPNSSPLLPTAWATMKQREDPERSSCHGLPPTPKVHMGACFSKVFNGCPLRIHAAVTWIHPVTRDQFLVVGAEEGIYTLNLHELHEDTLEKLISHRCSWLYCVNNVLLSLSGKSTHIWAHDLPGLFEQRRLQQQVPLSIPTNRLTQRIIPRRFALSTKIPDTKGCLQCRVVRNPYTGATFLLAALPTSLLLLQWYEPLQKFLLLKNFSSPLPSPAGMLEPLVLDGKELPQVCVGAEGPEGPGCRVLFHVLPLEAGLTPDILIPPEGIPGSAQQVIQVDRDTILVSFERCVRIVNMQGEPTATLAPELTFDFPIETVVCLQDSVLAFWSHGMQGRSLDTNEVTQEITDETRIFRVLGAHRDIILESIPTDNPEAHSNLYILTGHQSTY

Sequence of Mitogen-activated protein kinase 3 (Homo sapiens) (P27361 whole entry): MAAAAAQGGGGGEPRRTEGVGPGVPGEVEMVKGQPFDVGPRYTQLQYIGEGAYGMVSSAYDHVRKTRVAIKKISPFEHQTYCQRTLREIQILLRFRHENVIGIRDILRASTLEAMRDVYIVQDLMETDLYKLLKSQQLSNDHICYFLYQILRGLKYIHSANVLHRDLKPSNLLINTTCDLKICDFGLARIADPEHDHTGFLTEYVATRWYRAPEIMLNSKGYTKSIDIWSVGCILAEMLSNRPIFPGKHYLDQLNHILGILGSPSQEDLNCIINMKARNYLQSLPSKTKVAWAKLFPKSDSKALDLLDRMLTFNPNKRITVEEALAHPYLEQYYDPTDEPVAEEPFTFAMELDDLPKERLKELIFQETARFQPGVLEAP
Sequence of Ephrin type-A receptor 2 (Homo sapiens) (P29317 whole entry): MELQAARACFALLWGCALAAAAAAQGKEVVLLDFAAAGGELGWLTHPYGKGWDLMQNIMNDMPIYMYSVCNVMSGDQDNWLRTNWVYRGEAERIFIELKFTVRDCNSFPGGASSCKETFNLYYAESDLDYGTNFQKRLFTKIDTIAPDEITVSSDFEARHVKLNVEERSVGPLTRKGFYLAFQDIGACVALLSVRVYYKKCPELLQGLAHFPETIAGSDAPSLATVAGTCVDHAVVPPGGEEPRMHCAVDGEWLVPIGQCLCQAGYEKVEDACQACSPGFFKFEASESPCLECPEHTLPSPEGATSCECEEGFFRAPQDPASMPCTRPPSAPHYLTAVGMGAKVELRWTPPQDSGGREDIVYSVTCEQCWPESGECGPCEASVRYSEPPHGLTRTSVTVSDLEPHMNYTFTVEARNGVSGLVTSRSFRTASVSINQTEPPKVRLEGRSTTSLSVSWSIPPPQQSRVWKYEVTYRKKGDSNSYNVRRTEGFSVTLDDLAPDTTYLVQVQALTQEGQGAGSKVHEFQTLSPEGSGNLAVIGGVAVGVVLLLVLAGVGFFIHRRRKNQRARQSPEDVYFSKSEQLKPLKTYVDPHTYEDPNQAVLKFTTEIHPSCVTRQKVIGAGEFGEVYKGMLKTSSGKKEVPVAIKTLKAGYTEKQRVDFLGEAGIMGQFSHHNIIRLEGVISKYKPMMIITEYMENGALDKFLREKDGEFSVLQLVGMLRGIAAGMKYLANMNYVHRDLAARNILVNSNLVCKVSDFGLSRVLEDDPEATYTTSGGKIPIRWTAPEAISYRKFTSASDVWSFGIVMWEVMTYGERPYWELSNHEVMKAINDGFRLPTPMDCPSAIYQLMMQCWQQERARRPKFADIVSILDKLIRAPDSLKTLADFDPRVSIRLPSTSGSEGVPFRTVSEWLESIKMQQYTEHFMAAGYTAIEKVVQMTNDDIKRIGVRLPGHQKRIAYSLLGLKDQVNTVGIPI
Sequence of Serine/threonine-protein kinase Chk2 (Homo sapiens) (O96017 whole entry): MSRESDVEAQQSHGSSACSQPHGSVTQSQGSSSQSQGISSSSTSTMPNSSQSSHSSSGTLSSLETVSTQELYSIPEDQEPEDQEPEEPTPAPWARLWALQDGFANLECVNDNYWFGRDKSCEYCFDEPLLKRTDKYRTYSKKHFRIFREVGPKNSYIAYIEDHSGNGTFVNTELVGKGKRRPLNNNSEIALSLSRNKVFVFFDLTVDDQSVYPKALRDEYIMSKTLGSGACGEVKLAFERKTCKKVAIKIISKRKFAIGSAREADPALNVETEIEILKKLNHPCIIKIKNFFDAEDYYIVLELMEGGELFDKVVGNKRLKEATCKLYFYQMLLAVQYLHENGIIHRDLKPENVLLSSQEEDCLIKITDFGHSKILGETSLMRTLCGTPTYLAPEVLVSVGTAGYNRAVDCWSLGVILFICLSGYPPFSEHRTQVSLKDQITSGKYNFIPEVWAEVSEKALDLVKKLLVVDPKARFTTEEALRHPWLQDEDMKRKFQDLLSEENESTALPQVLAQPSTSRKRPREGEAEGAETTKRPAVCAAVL
Sequence of Mitogen-activated protein kinase 10 (Homo sapiens) (P53779 whole entry): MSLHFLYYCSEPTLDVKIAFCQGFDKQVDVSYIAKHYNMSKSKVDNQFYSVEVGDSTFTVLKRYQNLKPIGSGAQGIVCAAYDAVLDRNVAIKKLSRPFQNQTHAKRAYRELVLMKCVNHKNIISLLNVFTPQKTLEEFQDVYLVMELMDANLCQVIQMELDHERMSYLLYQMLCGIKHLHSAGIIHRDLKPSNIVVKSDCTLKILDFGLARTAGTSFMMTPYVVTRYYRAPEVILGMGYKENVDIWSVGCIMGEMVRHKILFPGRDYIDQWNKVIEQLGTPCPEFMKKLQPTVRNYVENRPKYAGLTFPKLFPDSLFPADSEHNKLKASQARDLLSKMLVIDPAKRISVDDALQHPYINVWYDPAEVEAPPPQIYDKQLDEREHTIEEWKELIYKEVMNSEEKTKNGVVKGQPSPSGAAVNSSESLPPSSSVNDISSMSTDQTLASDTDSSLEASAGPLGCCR

Row | Structure (SMILES) | Activity [1] [%] | Activity [2] [%] | Activity [3] [%] | Activity [4] [%] | Activity [5] [%] | Activity [6] [%] | Activity [7] [%]
1 | C[C@H](Nc1ncnc2nc[nH]c12)c1cc2cccc(Cl)c2c(=O)n1-c1ccccc1 | 96.6 | 96.9 | 91.3 | 95.9 | 96 | 96.3 | 96.7
2 | CC[C@H](Nc1ncnc2[nH]cnc12)c1nc2cccc(F)c2c(=O)n1-c1ccccc1 | 96 | 99.9 | 93.7 | 96 | 95.1 | 97 | 97
3 | CC(C)Oc1ccc(-c2nn([C@@H](C)c3oc4ccc(F)cc4c(=O)c3-c3cccc(F)c3)c3ncnc(N)c23)cc1F [UMBRALISIB] | 95.6 | 98.7 | 93.2 | 95.8 | 96.9 | 97.2 | 98.6
